This passage reports EC50 results from patent US20120245184A1 (Aderans Research Institute, Inc., priority 2006, published 2012).

Test [1] relates to sonic hedgehog pathway. The test can be described thus: Hedgehog reporter assay (gli-luciferase) in S12 cells. The test is classed as cell-based. The settings on record: S12 mouse embryonic mesenchymal cells. An excerpt:
Mouse (TM3: mouse Leydig cells; S12: mouse embryonic mesenchymal cells) and human (Daoy: human medulloblastoma cell; HepM: human embryonic palatal mesenchymal cell) cell lines are used to screen small molecules for their ability to modulate the activity of the sonic hedgehog pathway (Table 1, Table 2, and Table 3). Stable hedgehog pathway reporter cell lines are established by specific antibiotic selection following transfection of a reporter plasmid containing a luciferase gene located directly downstream from the gli promoter. Consequently, any observable changes in cellular luciferase activity may be attributed to changes in sonic hedgehog pathway activity in mouse and human cells, respectively, since gli is the major by-product of this pathway. To calculate activity, we generate an eleven point dose curve for each compound using 1:3 dilutions in 96 well assay plates. Each plate tested also contains low and high control to establish maximal pathway activation so to establish/compare a percentage activation of each tested compound (AMAX) on respective plates. Also we calculate EC50 values, or a concentration where the pathway will be exactly 50% activated, for each tested compound to determine potency. In these cell lines, compounds that register >20% AMAX values are considered active.
Stable hedgehog pathway reporter cell lines are established following specific antibiotic selection following transfection of a reporter plasmid
In short, typically cells are plated in MicroTiter-plates at 10,000-20,000 cells per well, in growth media (containing 10%-20% FBS). After 48-72 hrs (HGL and DGL respectively) the media in the assay plates is switched to low-serum containing media (0.5% FBS). At that time compounds are added (at 1-5 μM) to the assay plates, in the presence or absence of hedgehog protein (octyl-modified version; 1-5 ng/ml). After another 24 hrs of incubation, the media from the assay plates is discarded and replaced with luciferase assay-mix. Subsequently, plates are incubated at RT for ˜15-30 mins and then read in a luminometer. [note: addition of the Hedgehog protein, although not critical, will sensitize the assay allowing the identification of weak actives].
On the technique in general: Reporter assays use an easily measured gene product as a stand-in for the process of interest.

The subject of test [2] is sonic hedgehog pathway. The test can be described thus: Human hedgehog reporter assay HEPM-GliLuc (HGL). The format is cell-based. The note with it: HepM human embryonic palatal mesenchymal cells, gli-luciferase reporter; read-out: HEPM Avg. EC50. The method, boiled down:
(§1)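 Stable gli-luciferase reporter lines (mouse TM3; human Daoy and HEPM) switched to 0.5% FBS medium, given compounds at 1-5 μM with or without octyl-modified hedgehog protein (1-5 ng/ml) for 24 hrs. Luminescence read; eleven-point 1:3 dose curves, activation expressed as percentage of plate controls (AMAX).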

In test [3] the test system is sonic hedgehog pathway. Kind of test: Human hedgehog reporter assay Daoy-GliLuc (DGL). The format is cell-based. In a few lines: as §1
Test [4] concerns sonic hedgehog pathway. The test can be described thus: Hedgehog reporter assay (gli-luciferase) in TM3 cells. The format is cell-based, mouse. The settings on record: TM3 mouse Leydig cells, gli-luciferase reporter; read-out: TM3 Avg. EC50. In a few lines: as §1
The mark [5] stands for this setting: Daoy human medulloblastoma cells, gli-luciferase reporter, read-out: Daoy Avg. EC50.
[6] abbreviates: Homo sapiens, Daoy, read-out: Human Daoy (Gli-Luc) Avg. EC50 (nM).
Setting [7] is: Daoy human medulloblastoma cells, gli-luciferase reporter, read-out: Human Daoy (Gli-Luc) Avg. EC50.

Where a name gives a salt, the structure may show the parent alone.

In the case of `CNC1CCC(N(Cc2cc(-c3ccncc3)ccc2O)C(=O)c2sc3c(F)ccc(F)c3c2Cl)CC1` (stereo not shown) [Compound 368, 3-Chloro-4,7-difluoro-benzo[b]thiophene-2-carboxylic acid (2-hydroxy-5-pyridin-4-yl-benzyl)-(4-methylamino-cyclohexyl)-amide dihydrochloride], the EC50 in the test on sonic hedgehog pathway [1] (read-out: S12 Avg. EC50), in the test on sonic hedgehog pathway [2] and in the test on sonic hedgehog pathway [3] (setting [5]) was under 50 nM each time.
Turning to `CNC1CCC(N(Cc2cc(-c3ccc(C(=O)N(C)C)cc3)ccc2OC)C(=O)c2sc3ccccc3c2Cl)CC1` (stereo not shown) [Compound 317 (R19), 3-Chloro-benzo[b]thiophene-2-carboxylic acid (4′-dimethylcarbamoyl-4-methoxy-biphenyl-3-ylmethyl)-(4-methylamino-cyclohexyl)-amide hydrochloride], the EC50 in the test on sonic hedgehog pathway [4], in the test on sonic hedgehog pathway [1] (read-out: S12 Avg. EC50) and in the test with sonic hedgehog pathway [2] was under 50 nM throughout.
On to `CNC1CCC(N(Cc2cc(-c3ccc(NS(C)(=O)=O)nc3)ccc2OC)C(=O)c2sc3c(F)ccc(F)c3c2Cl)CC1` (stereo not shown) [Compound R10, 3-Chloro-4,7-difluoro-benzo[b]thiophene-2-carboxylic acid[5-(6-methanesulfonylamino-pyridin-3-yl)-2-methoxy-benzyl]-(4-methylamino-cyclohexyl)-amide dihydrochloride], for which the EC50 in the test with sonic hedgehog pathway [4], in the test with sonic hedgehog pathway [1] (read-out: S12 Avg. EC50) and with sonic hedgehog pathway [2] was under 50 nM each time.
As for `CNC1CCC(N(Cc2cc(-c3ccc(N)nc3)ccc2OC)C(=O)c2sc3ccccc3c2Cl)CC1` (stereo not shown) [Compound 319, 3-Chloro-benzo[b]thiophene-2-carboxylic acid [5-(6-aminopyridin-3-yl)-2-methoxy-benzyl]-(4-methylamino-cyclohexyl)-amide dihydrochloride], the EC50 with sonic hedgehog pathway [4], in the test with sonic hedgehog pathway [1] (read-out: S12 Avg. EC50) and with sonic hedgehog pathway [2] was under 50 nM throughout.
Take `COc1ccc(-c2ccc(S(C)(=O)=O)cc2)cc1CN(C(=O)c1sc2c(F)ccc(F)c2c1Cl)C1CCC(N)CC1` (stereo not shown) [Compound 390, 3-Chloro-4,7-difluoro-benzo[b]thiophene-2-carboxylic acid (4-amino-cyclohexyl)-(4′-methanesulfonyl-4-methoxy-biphenyl-3-ylmethyl)-amide hydrochloride]: the EC50 with sonic hedgehog pathway [1] (read-out: Mouse S12 Avg. EC50) and with sonic hedgehog pathway [3] (setting [6]) was under 50 nM each time.
Take `CNC1CCC(N(Cc2cc(-c3ccccc3SC)ccc2OC)C(=O)c2sc3c(F)ccc(F)c3c2Cl)CC1` (stereo not shown) [Compound 408, 3-Chloro-4,7-difluoro-benzo[b]thiophene-2-carboxylic acid (4-methoxy-2′-methylsulfanyl-biphenyl-3-ylmethyl)-(4-methylamino-cyclohexyl)-amide hydrochloride]: the EC50 in the test with sonic hedgehog pathway [1] (read-out: S12 Avg. EC50) and in the test with sonic hedgehog pathway [3] (setting [5]) was 250 to 1000 nM throughout.
As for `CN[C@H]1CC[C@@H](N(Cc2cc(-c3ccnc(C)c3)ccc2OC)C(=O)C2=C(Cl)c3c(C)ccc(F)c3C2)CC1` [Compound 355], the EC50 in the test with sonic hedgehog pathway [4], in the test with sonic hedgehog pathway [1] (read-out: S12 Avg. EC50) and in the test with sonic hedgehog pathway [2] was under 50 nM in each case.
Turning to `CNC1CCC(N(Cc2cc(-c3cc[n+]([O-])cc3)ccc2OC)C(=O)c2sc3c(F)ccc(F)c3c2Cl)CC1` (stereo not shown) [Compound 374, 4-(3-((3-chloro-4,7-difluoro-N-((1s,4s)-4-(methylamino)cyclohexyl)benzo[b]thiophene-2-carboxamido)methyl)-4-methoxyphenyl)pyridine 1-oxide], the EC50 with sonic hedgehog pathway [1] (read-out: Mouse S12 Avg. EC50) and with sonic hedgehog pathway [3] (setting [7]) was under 50 nM each time.
Turning to `CNC1CCC(N(Cc2cc(-c3ccc(S(N)(=O)=O)cc3)ccc2OC)C(=O)c2sc3c(F)ccc(F)c3c2Cl)CC1` (stereo not shown) [Compound 388, 3-Chloro-4,7-difluoro-benzo[b]thiophene-2-carboxylic acid(4-methoxy-4′-sulfamoyl-biphenyl-3-ylmethyl)-(4-methylamino-cyclohexyl)-amide hydrochloride], the EC50 with sonic hedgehog pathway [1] (read-out: Mouse S12 Avg. EC50) and in the test on sonic hedgehog pathway [3] (setting [7]) was under 50 nM in each case.
As to `CNC1CCC(N(Cc2cc(-c3ccncc3F)ccc2OC)C(=O)c2sc3cccc(F)c3c2Cl)CC1` (stereo not shown) [Compound 387, 3-Chloro-4-fluoro-benzo[b]thiophene-2-carboxylic acid[5-(3-fluoro-pyridin-4-yl)-2-methoxy-benzyl]-(4-methylamino-cyclohexyl)-amide], the EC50 with sonic hedgehog pathway [1] (read-out: Mouse S12 Avg. EC50) and in the test with sonic hedgehog pathway [3] (setting [7]) was under 50 nM in each case.
Take `CNC1CCC(N(Cc2cc(-c3ccc(N(C)S(C)(=O)=O)cc3)ccc2OC)C(=O)c2sc3c(F)ccc(F)c3c2Cl)CC1` (stereo not shown) [Compound 371, 3-Chloro-4,7-difluoro-benzo[b]thiophene-2-carboxylic acid[4′-(methanesulfonyl-methyl-amino)-4-methoxy-biphenyl-3-ylmethyl]-(4-methylamino-cyclohexyl)-amide hydrochloride]: the EC50 in the test with sonic hedgehog pathway [1] (read-out: Mouse S12 Avg. EC50) and with sonic hedgehog pathway [3] (setting [7]) was under 50 nM in each case.
Take `CNC1CCC(N(Cc2cc(-c3ccc(CS(C)(=O)=O)cc3)ccc2OC)C(=O)c2sc3c(F)ccc(F)c3c2Cl)CC1` (stereo not shown) [Compound 369, 3-Chloro-4,7-difluoro-benzo[b]thiophene-2-carboxylic acid(4′-methanesulfonylmethyl-4-methoxy-biphenyl-3-ylmethyl)-(4-methylamino-cyclohexyl)-amide hydrochloride]: the EC50 in the test with sonic hedgehog pathway [1] (read-out: Mouse S12 Avg. EC50) and with sonic hedgehog pathway [3] (setting [7]) was under 50 nM in each case.
As for `CN[C@H]1CC[C@H](N(Cc2cc(-c3cncc(F)c3)ccc2OC)C(=O)c2sc3cccc(F)c3c2Cl)CC1` [Compound 383, 3-chloro-4-fluoro-N-(5-(5-fluoropyridin-3-yl)-2-methoxybenzyl)-N-((1s,4s)-4-(methylamino)cyclohexyl)benzo[b]thiophene-2-carboxamide], the EC50 in the test on sonic hedgehog pathway [1] (read-out: Mouse S12 Avg. EC50) and in the test with sonic hedgehog pathway [3] (setting [7]) was under 50 nM each time.
Consider `CN[C@H]1CC[C@H](N(Cc2cc(-c3ccc(F)nc3)ccc2OC)C(=O)c2sc3c(F)ccc(F)c3c2Cl)CC1` [Compound 379, 3-Chloro-4,7-difluoro-benzo[b]thiophene-2-carboxylic acid[5-(6-fluoro-pyridin-3-yl)-2-methoxy-benzyl]-(4-methylamino-cyclohexyl)-amide], for which the EC50 in the test on sonic hedgehog pathway [1] (read-out: Mouse S12 Avg. EC50) and with sonic hedgehog pathway [3] (setting [7]) was under 50 nM each time.
Turning to `C=Cc1ccc(-c2ccc(OC)c(CN(C(=O)c3sc4c(F)ccc(F)c4c3Cl)[C@H]3CC[C@H](N)CC3)c2)cc1` [Compound 393, N-((1r,4r)-4-aminocyclohexyl)-3-chloro-4,7-difluoro-N-((4-methoxy-4′-vinylbiphenyl-3-yl)methyl)benzo[b]thiophene-2-carboxamide], the EC50 with sonic hedgehog pathway [1] (read-out: Mouse S12 Avg. EC50) and with sonic hedgehog pathway [3] (setting [7]) was 50 to 250 nM in each case.
For `COc1ccc(-c2cccnc2)cc1CN(C(=O)c1sc2cccc(F)c2c1Cl)[C@H]1CC[C@H](N)CC1` [Compound 410, 3-Chloro-4-fluoro-benzo[b]thiophene-2-carboxylic acid(4-amino-cyclohexyl)-(2-methoxy-5-pyridin-3-yl-benzyl)-amide], the EC50 in the test on sonic hedgehog pathway [1] (read-out: S12 Avg. EC50) and in the test on sonic hedgehog pathway [3] (setting [5]) was under 50 nM in each case.
In the case of `CN[C@H]1CC[C@H](N(Cc2cc(-c3cccnc3F)ccc2OC)C(=O)c2sc3c(F)ccc(F)c3c2Cl)CC1` [Compound 378, 3-Chloro-4,7-difluoro-benzo[b]thiophene-2-carboxylic acid[5-(2-fluoro-pyridin-3-yl)-2-methoxy-benzyl]-(4-methylamino-cyclohexyl)-amide], the EC50 with sonic hedgehog pathway [1] (read-out: Mouse S12 Avg. EC50) and with sonic hedgehog pathway [3] (setting [7]) was under 50 nM throughout.
As for `CNC1CCC(N(Cc2cc(-c3ccc(NS(C)(=O)=O)cc3)ccc2OC)C(=O)c2sc3c(F)ccc(F)c3c2Cl)CC1` (stereo not shown) [Compound 370, 3-Chloro-4,7-difluoro-benzo[b]thiophene-2-carboxylic acid (4′-methanesulfonylamino-4-methoxy-biphenyl-3-ylmethyl)-(4-methylamino-cyclohexyl)-amide hydrochloride], the EC50 with sonic hedgehog pathway [1] (read-out: Mouse S12 Avg. EC50) and with sonic hedgehog pathway [3] (setting [6]) was under 50 nM throughout.
With `CN[C@H]1CC[C@@H](N(Cc2cc(-c3ccncc3F)ccc2OC)C(=O)c2sc3c(F)ccc(F)c3c2Cl)CC1` [Compound 386, 3-Chloro-4,7-difluoro-benzo[b]thiophene-2-carboxylic acid[5-(3-fluoro-pyridin-4-yl)-2-methoxy-benzyl]-(4-methylamino-cyclohexyl)-amide], the EC50 with sonic hedgehog pathway [1] (read-out: Mouse S12 Avg. EC50) and with sonic hedgehog pathway [3] (setting [7]) was under 50 nM in each case.

In general, EC50 refers to the concentration that produces a half-maximal response.
